In ChEMBL document CHEMBL1157785, “Identification of 4,5-dihydro-1H-pyrazolo[4,3-h]quinazoline derivatives as a new class of orally and selective Polo-like kinase 1 inhibitors” (J Med Chem, 2010):
Converted amounts (≈) assume the structure as drawn.

Assay: Solubility at pH 7 after 24 hrs by LC-MS/MS analysis
Assay type: physicochemical
Details: buffer

Structure (SMILES) | solubility at 24 h [µM]
Cc1ccccc1Nc1ncc2c(n1)-c1c(c(C(N)=O)nn1C)CC2 | 3 (≈ 1 µg/mL)
CC(=O)c1ccccc1Nc1ncc2c(n1)-c1c(c(C(N)=O)nn1C)CC2 | 2 (≈ 0.725 µg/mL)
COC(=O)c1ccccc1Nc1ncc2c(n1)-c1c(c(C(N)=O)nn1C)CC2 | 2 (≈ 0.757 µg/mL)
CC(=O)Nc1ccccc1Nc1ncc2c(n1)-c1c(c(C(N)=O)nn1C)CC2 | 16 (≈ 6.04 µg/mL)
Cn1nc(C(N)=O)c2c1-c1nc(Nc3ccccc3F)ncc1CC2 | 3 (≈ 1.02 µg/mL)
Cn1nc(C(N)=O)c2c1-c1nc(Nc3ccccc3C(F)(F)F)ncc1CC2 | 4 (≈ 1.55 µg/mL)
COc1cc(N2CCN(C)CC2)ccc1Nc1ncc2c(n1)-c1c(c(C(N)=O)nn1C)CC2 | > 225
Cn1nc(C(N)=O)c2c1-c1nc(Nc3ccccc3-c3ccccc3)ncc1CC2 | < 1
CC(=O)c1c(Nc2ncc3c(n2)-c2c(c(C(N)=O)nn2C)CC3)cccc1N1CCN(C)CC1 | 170 (≈ 78.3 µg/mL)
Cn1nc(C(N)=O)c2c1-c1nc(Nc3ccccc3Cc3ccccc3)ncc1CC2 | < 1
CC(=O)c1ccc(N2CCN(C)CC2)cc1Nc1ncc2c(n1)-c1c(c(C(N)=O)nn1C)CC2 | 18 (≈ 8.29 µg/mL)
CC(=O)c1cc(N2CCN(C)CC2)ccc1Nc1ncc2c(n1)-c1c(c(C(N)=O)nn1C)CC2 | 83 (≈ 38.2 µg/mL)
COc1ccccc1Nc1ncc2c(n1)-c1c(c(C(N)=O)nn1C)CC2 | 3 (≈ 1.05 µg/mL)
Cn1nc(C(N)=O)c2c1-c1nc(Nc3ccccc3C(N)=O)ncc1CC2 | < 1
Cn1nc(C(N)=O)c2c1-c1nc(Nc3ccccc3Nc3ccccc3)ncc1CC2 | < 1
Cn1nc(C(N)=O)c2c1-c1nc(Nc3ccccc3S(N)(=O)=O)ncc1CC2 | 4 (≈ 1.6 µg/mL)
Cn1nc(C(N)=O)c2c1-c1nc(Nc3ccccc3C(=O)c3ccccc3)ncc1CC2 | < 1
Cn1nc(C(N)=O)c2c1-c1nc(Nc3ccccc3Oc3ccccc3)ncc1CC2 | < 1
CC(C)c1ccccc1Nc1ncc2c(n1)-c1c(c(C(N)=O)nn1C)CC2 | 2 (≈ 0.725 µg/mL)
Cn1nc(C(N)=O)c2c1-c1nc(Nc3ccccc3Sc3ccccc3)ncc1CC2 | < 1
CSc1ccccc1Nc1ncc2c(n1)-c1c(c(C(N)=O)nn1C)CC2 | 2 (≈ 0.733 µg/mL)
Cn1nc(C(N)=O)c2c1-c1nc(Nc3ccccc3)ncc1CC2 | 3 (≈ 0.961 µg/mL)
Cn1nc(C(N)=O)c2c1-c1nc(Nc3ccccc3N)ncc1CC2 | 190 (≈ 63.7 µg/mL)
CNc1ccccc1Nc1ncc2c(n1)-c1c(c(C(N)=O)nn1C)CC2 | 23 (≈ 8.04 µg/mL)

Assay: Apparent permeability across human Caco-2 cell membrane at 10 uM after 120 mins by LC-MS/MS analysis
Assay type: ADME, cell-based
Details: not given

Structure (SMILES) | Papp at 2 h, 10 µM [×10⁻⁶ cm/s]
Cn1nc(C(=O)O)c2c1-c1nc(Nc3ccccc3)ncc1CC2 | 2.7
Cn1nc(C(N)=O)c2c1-c1nc(Nc3ccccc3)ncc1CC2 | 58.3
